From ChEMBL document CHEMBL3045264, “Synthesis and antimicrobial activity of 5-((3-aryl-1-phenyl-1H-pyrazol-4-yl)methylene)thiazolidine-2,4-diones” (2012)
Values after ≈ are worked out from the molar mass of the structure shown. Active and inactive are the calls of the source. The rule behind the calls is not given here.

Legend:
Aspergillus niger = assay: Growth inhibition of Aspergillus niger at 4 mg/ml after 7 days by poisoned food technique; assay type: functional; conditions: 168 h, read-out: GI
Aspergillus flavus = assay: Growth inhibition of Aspergillus flavus at 4 mg/ml after 7 days by poisoned food technique; assay type: functional; conditions: 168 h, read-out: GI
Bacillus subtilis [1] = assay: Antibacterial activity against Bacillus subtilis MTCC 121 after 24 hr by macro dilution tube method; assay type: functional; conditions: MTCC 121, 24 h
Staphylococcus aureus [2] = assay: Antibacterial activity against Staphylococcus aureus MTCC 96 after 24 hr by macro dilution tube method; assay type: functional; conditions: MTCC 96, 24 h
Escherichia coli = assay: Antibacterial activity against Escherichia coli MTCC 1652 at 4 mg/ml after 24 hr by agar well diffusion method; assay type: functional, organism-based
Bacillus subtilis [3] = assay: Antibacterial activity against Bacillus subtilis MTCC 121 at 4 mg/ml after 24 hr by agar well diffusion method; assay type: functional; conditions: MTCC 121, 24 h, read-out: DIZ
Staphylococcus aureus [4] = assay: Antibacterial activity against Staphylococcus aureus MTCC 96 at 4 mg/ml after 24 hr by agar well diffusion method; assay type: functional; conditions: MTCC 96, 24 h, read-out: DIZ
Pseudomonas aeruginosa [5] = conditions: MTCC 741, 4 mg/ml
Description: (§1) Antibacterial activity against Pseudomonas aeruginosa MTCC 741 at 4 mg/ml after 24 hr by agar well diffusion method

Pseudomonas aeruginosa [6] = assay: microbe, parasite or virus in culture; conditions: MTCC 741, 24 h, read-out: DIZ
Description: as §1

Compound | inhibition of growth at 4000 µg/mL (Aspergillus niger) | inhibition of growth at 4000 µg/mL (Aspergillus flavus) | MIC (Bacillus subtilis [1]) | MIC (Staphylococcus aureus [2]) | diameter of the inhibition zone (DIZ) (Escherichia coli) | zone of inhibition at 4000 µg/mL (Bacillus subtilis [3]) | zone of inhibition at 4000 µg/mL (Staphylococcus aureus [4]) | DIZ (Pseudomonas aeruginosa [5]) | zone of inhibition at 4000 µg/mL (Pseudomonas aeruginosa [6])
O=C1NC(=O)/C(=C/c2cn(-c3ccccc3)nc2-c2ccc(Br)cc2)S1 | 61.1% | 62.5% | 32 mg/L (≈ 75.1 µM) | 64 mg/L (≈ 150 µM) | inactive | 21.6 mm | 18.6 mm | inactive | –
OC(Cn1cncn1)(Cn1cncn1)c1ccc(F)cc1F [FLUCONAZOLE] | 81.1% | 77.7% | – | – | – | – | – | – | –
O=C(O)c1cn(C2CC2)c2cc(N3CCNCC3)c(F)cc2c1=O [CIPROFLOXACIN] | – | – | 5 mg/L (≈ 15.1 µM) | 5 mg/L (≈ 15.1 µM) | – | 24 mm | 26 mm | – | 22 mm
O=C1NC(=O)/C(=C/c2cn(-c3ccccc3)nc2-c2ccc(Cl)cc2)S1 | 65.5% | 60% | 128 mg/L (≈ 335 µM) | 128 mg/L (≈ 335 µM) | inactive | 15 mm | 14.3 mm | inactive | –
O=C1NC(=O)/C(=C/c2cn(-c3ccccc3)nc2-c2ccccc2)S1 | 62.5% | 60% | 128 mg/L (≈ 368 µM) | 32 mg/L (≈ 92.1 µM) | inactive | 16 mm | 20.3 mm | inactive | –
O=C1NC(=O)/C(=C/c2cn(-c3ccccc3)nc2-c2ccc([N+](=O)[O-])cc2)S1 | 61.1% | 63.3% | 32 mg/L (≈ 81.6 µM) | 16 mg/L (≈ 40.8 µM) | inactive | 21.3 mm | 23.6 mm | inactive | –
COc1ccc(-c2nn(-c3ccccc3)cc2/C=C2\SC(=O)NC2=O)cc1 | 60% | 57.7% | 128 mg/L (≈ 339 µM) | 128 mg/L (≈ 339 µM) | inactive | 14.3 mm | 13.6 mm | inactive | –
O=C1NC(=O)/C(=C/c2cn(-c3ccccc3)nc2-c2ccc(O)cc2)S1 | 55.5% | 54.4% | 128 mg/L (≈ 352 µM) | 128 mg/L (≈ 352 µM) | inactive | 14.6 mm | 15 mm | inactive | –
Cc1ccc(-c2nn(-c3ccccc3)cc2/C=C2\SC(=O)NC2=O)cc1 | 68.8% | 65.5% | 128 mg/L (≈ 354 µM) | 128 mg/L (≈ 354 µM) | inactive | 15.6 mm | 16.3 mm | inactive | –
O=C1NC(=O)/C(=C/c2cn(-c3ccccc3)nc2-c2ccc(F)cc2)S1 | 82.5% | 78.8% | 32 mg/L (≈ 87.6 µM) | 32 mg/L (≈ 87.6 µM) | inactive | 21.6 mm | 20.6 mm | inactive | –
